ChEMBL document CHEMBL1157733, “Isolation, structure, and bioactivities of abiesadines A-Y, 25 new diterpenes from Abies georgei Orr” (Bioorg Med Chem, 2010)
Values after ≈ are worked out from the molar mass of the structure shown.

Experiments:
[1] = Inhibition of TNF-alpha-induced NF-kappaB activity in human pNF-kappaB-luc-293 cells; format: cell-based; conditions: HEK293
[2] = Antiproliferative activity against human QGY7703 cells; format: functional, cell-based; conditions: QGY-7703
[3] = system: RAW264.7; experiment: Antiinflammatory activity in mouse RAW264.7 cells assessed as inhibition of LPS-induced NO release; format: functional, cell-based
[4] = system: LoVo; experiment: Antiproliferative activity against human LoVo cells; format: functional, cell-based

| Structure (SMILES) | IC50 [1] [µg/mL] | IC50 [3] [µg/mL] | IC50 [4] [µg/mL] | IC50 [2] [µg/mL] |
| --- | --- | --- | --- | --- |
| N=C(N)NN [PIMAGEDINE] | – | 3.3 (≈ 44.5 µM) | – | – |
| COC(C)(C)c1ccc2c(c1)[C@H](O)C[C@H]1[C@](C)(COC(=O)CCC(=O)O)CCC[C@]21C [ABIESADINE M] | > 100 | > 100 | > 25 | > 25 |
| C=C[C@@](C)(O)CC[C@H]1C(=C)CC[C@H]2C(C)(C)CCC[C@]12C [MANOOL] | > 100 | 11 (≈ 37.9 µM) | > 25 | > 25 |
| CC(C)[C@]12C=C3CC[C@H]4[C@](C)(C(=O)O)CCC[C@]4(C)[C@@]3(CC1)OO2 | > 100 | > 100 | > 25 | > 25 |
| C=C[C@@](C)(O)CC[C@H]1C(=C)CC[C@H]2[C@](C)(COC(=O)CCC(=O)OC)CCC[C@]12C [ABIESADINE Y] | 22.4 (≈ 53.3 µM) | 48.5 (≈ 115 µM) | 10.6 (≈ 25.2 µM) | > 25 |
| COC(C)(C)c1ccc2c(c1)CC[C@H]1[C@](C)(COC(=O)CCC(=O)O)CCC[C@]21C [ABIESADINE J] | > 100 | > 100 | > 25 | > 25 |
| COc1cccc2c1C(=O)c1c(O)c3c(c(O)c1C2=O)C[C@@](O)(C(=O)CO)C[C@@H]3O[C@H]1C[C@H](N)[C@H](O)[C@H](C)O1 [DOXORUBICIN] | – | – | 0.55 (≈ 1.01 µM) | 0.42 (≈ 0.773 µM) |
| CC(C)[C@@]12C=C3CC[C@H]4[C@](C)(C(=O)O)CCC[C@]4(C)[C@]3(CC1)OO2 | > 100 | > 100 | > 25 | > 25 |
| CC(C)[C@]12C=C3CC[C@H]4[C@](C)(COC(=O)CCC(=O)O)CCC[C@]4(C)[C@@]3(CC1)OO2 [ABIESADINE W] | > 100 | > 100 | > 25 | > 25 |
| C=C[C@@](C)(O)CCC1C(=C)CC[C@H]2[C@](C)(COC(=O)CCC(=O)O)CCC[C@]12C (stereo partly drawn) [ABIESADINE X] | > 100 | > 100 | > 25 | > 25 |
| CC(C)(O)c1ccc2c(c1)CC[C@H]1[C@](C)(COC(=O)CCC(=O)O)CCC[C@]21C [ABIESADINE I] | > 100 | > 100 | > 25 | > 25 |
| CC(C)c1cc2c(cc1O)[C@@]1(C)CCC[C@@](C)(C(=O)O)[C@@H]1CC2 | > 100 | 63 (≈ 199 µM) | > 25 | > 25 |
| C=C[C@@](C)(O)CCC1C(=C)CC[C@H]2[C@](C)(CO)CCC[C@]12C (stereo partly drawn) [TORREFEROL] | > 100 | > 100 | 24.3 (≈ 79.3 µM) | > 25 |
| CC(C)(O)c1ccc2c(c1)[C@H](O)C[C@H]1[C@](C)(COC(=O)CCC(=O)O)CCC[C@]21C [ABIESADINE L] | > 100 | > 100 | > 25 | > 25 |
| C=C[C@@](C)(O)CC[C@@H]1[C@@]2(C)CCCC(C)(C)[C@@H]2CC[C@@]1(C)O | – | – | 13 (≈ 42.1 µM) | > 25 |

More lines, main results first:

| IC50 [1] [µg/mL] | IC50 [3] [µg/mL] | IC50 [4] [µg/mL] | Structure (SMILES) | IC50 [2] [µg/mL] |
| --- | --- | --- | --- | --- |
| > 100 | > 100 | > 25 | CC(C)c1ccc2c(c1)[C@H](O)C[C@H]1[C@](C)(C(=O)O)CCC[C@]21C | > 25 |
| > 100 | > 100 | > 25 | CC(C)c1ccc2c(c1)C(=O)C[C@H]1[C@](C)(COC(=O)CCC(=O)O)CCC[C@]21C [ABIESADINE Q] | > 25 |
| > 100 | > 100 | > 25 | CC(C)(O)c1ccc2c(c1)C(=O)C[C@H]1[C@](C)(COC(=O)CCC(=O)O)CCC[C@]21C [ABIESADINE R] | > 25 |
| > 100 | > 100 | > 25 | CC(C)[C@]12O[C@H]1CC1[C@@]3(C)CCC[C@@](C)(C(=O)O)[C@@H]3CC[C@@]1(O)[C@H]2O (stereo partly drawn) [ABIESADINE C] | > 25 |
| > 100 | 76.4 (≈ 241 µM) | > 25 | CC(C)(O)c1ccc2c(c1)CC[C@H]1[C@](C)(C(=O)O)CCC[C@]21C | > 25 |
| > 100 | 49 (≈ 114 µM) | > 25 | COC(=O)CCC(=O)OC[C@]1(C)CCC[C@]2(C)c3ccc(C(C)(C)O)cc3C(=O)C[C@@H]12 [ABIESADINE S] | > 25 |
| > 100 | > 100 | > 25 | CC(C)(O)C1=CC2=CC[C@@H]3[C@](C)(CCC[C@@]3(C)C(=O)O)[C@H]2CC1=O | > 25 |
| > 100 | > 100 | > 25 | CC(C)/C(C=O)=C\C[C@H]1C(=O)CC[C@@H]2[C@]1(C)CCC[C@@]2(C)C(=O)O [ABIESADINE A] | > 25 |
| > 100 | > 100 | > 25 | CC(C)c1ccc2c(c1)C(=O)C[C@H]1[C@](C)(C(=O)O)CCC[C@]21C | 10.2 (≈ 32.4 µM) |
| > 100 | > 100 | > 25 | CC(C)C1=CC2=CC[C@@H]3[C@](C)(CCC[C@@]3(C)C(=O)O)[C@H]2CC1 [ABIETIC ACID] | > 25 |
| > 100 | 94.1 (≈ 273 µM) | > 25 | CCOC(C)(C)c1ccc2c(c1)CC[C@H]1[C@](C)(C(=O)O)CCC[C@]21C [ABIESADINE P] | > 25 |
| > 100 | 83.4 (≈ 200 µM) | > 25 | COC(=O)CCC(=O)OC[C@]1(C)CCC[C@]2(C)c3ccc(C(C)C)cc3[C@H](O)C[C@@H]12 [ABIESADINE H] | > 25 |
| > 100 | > 100 | > 25 | CC(C)[C@]12CC[C@@]3(O1)[C@@]1(C)CCC[C@@](C)(C(=O)O)[C@@H]1CC[C@]3(O)[C@H]2O [ABIESADINE D] | > 25 |
| > 100 | > 100 | > 25 | CC(C)c1ccc2c(c1)C(=O)C[C@H]1[C@](C)(CO)CCC[C@]21C | > 25 |
| > 100 | > 100 | > 25 | CC(C)c1ccc2c(c1)[C@@H](O)C[C@H]1[C@](C)(CO)CCC[C@]21C | > 25 |
| > 100 | > 100 | > 25 | CC(C)C1=CC2=CC[C@H]3[C@](C)(COC(=O)CCC(=O)O)CCC[C@]3(C)[C@H]2CC1 | > 25 |
| > 100 | > 100 | > 25 | CC(C)c1ccc2c(c1)[C@@H](O)C[C@H]1[C@](C)(C(=O)O)CCC[C@]21C | > 25 |
| > 100 | > 100 | > 25 | CC(C)(O)c1ccc2c(c1)[C@@H](O)C[C@H]1[C@](C)(C(=O)O)CCC[C@]21C | > 25 |
| > 100 | > 100 | > 25 | COC(C)(C)c1ccc2c(c1)CC[C@H]1[C@](C)(C(=O)O)CCC[C@]21C [ABIESADINE N] | > 25 |
| > 100 | > 100 | > 25 | CC(C)C1=CC[C@H]2C(=C1)C(=O)C[C@@H]1[C@]2(C)CCC[C@@]1(C)C(=O)O [ABIESADINE E] | > 25 |
